Measurements: ChEMBL document CHEMBL3351869, “Discovery of a new family of carbonic anhydrases in the malaria pathogen Plasmodium falciparum--the η-carbonic anhydrases” (Bioorg Med Chem Lett, 2014)

Molecular target: Carbonic anhydrase 1 (Homo sapiens, UniProt P00915)
Sequence (P00915 whole entry): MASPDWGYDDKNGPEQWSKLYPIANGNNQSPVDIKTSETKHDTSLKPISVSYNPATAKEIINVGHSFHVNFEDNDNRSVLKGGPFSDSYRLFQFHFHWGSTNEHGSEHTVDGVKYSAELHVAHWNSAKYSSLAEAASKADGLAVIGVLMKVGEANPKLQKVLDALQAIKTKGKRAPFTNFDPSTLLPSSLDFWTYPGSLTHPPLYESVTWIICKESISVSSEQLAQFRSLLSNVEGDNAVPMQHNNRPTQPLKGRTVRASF

Compound: O=[Se](=O)(O)O [SODIUM SELENATE]
- Ki: 570 µM
